Test results reported in US20160000080A1, “COMPOSITIONS CONTAINING ISOSORBIDE MONOESTER AND ALIPHATIC VICINAL DIOLS” (CLARIANT INTERNATIONAL LTD., priority 2011, published 2016).
Like-named read-outs stand apart in the source and are kept apart here. Blank lines part the entries; values can stand above or below the compound they belong to.

Columns and labels:
[1] = tested on: bacteria, fungi and yeasts; conditions: general statement, no test described, cited from earlier work
Escherichia coli = assay: Minimum inhibitory concentration (MIC) in agar; type: cell-based; conditions: Escherichia coli (B)
Procedure: (§1) Below, the antimicrobial efficacy of a composition according to the invention consisting of 50% by weight of isorbide caprylate 1 and 50% by weight of ethylhexylglycerin against bacteria, fungi and yeasts is examined (hereinbelow, the composition is referred to as “composition A”). For the tests with bacteria, composition A was diluted with butyl polyglycol and then, at 50° C., added to liquid CASO agar (casein-peptone agar) buffered to pH 7 (+/−0.2) in various concentrations (hereinbelow referred to as compositions B1, B2, etc.). For the tests with fungi and yeasts, composition A was diluted with butyl polyglycol and then added to liquid Sabouraud 4% dextrose agar buffered to pH 5.6 (+/−0.2) in various concentrations (hereinbelow referred to as compositions PH1, PH2, etc.). The compositions B1, B2, etc. and PH1, PH2 etc. were each poured into Petri dishes and each inoculated with identical amounts of bacteria, fungi and yeasts. The minimum inhibitory concentration (MIC) is the concentration at which inhibition of the growth of the bacteria, fungi and yeasts in the compositions B1, B2, etc. and PH1, PH2, etc. occurs.
(§2) The minimum inhibitory concentrations for the pure substances isosorbide caprylate 1 and ethylhexylglycerin were determined analogously.
(§3) The values determined for the minimum inhibitory concentrations “MIC mixture”, stated in Table 1 below, are based on the concentrations of composition A.
(§4) The values determined for the minimum inhibitory concentrations “QA” and “QB”, stated in Table 1 below, have already been corrected for the dilution effect of the butyl polyglycol.
(§5) From the minimum inhibitory concentrations determined, it is then possible to calculate whether a synergistic effect is present or not. Whether a synergistic effect is present is calculated according to F. C. Kull et al., Applied Microbiology 1961, 9, 538 using the formula below: […]
(§6) where • Qa is the minimum inhibitory concentration of isosorbide caprylate 1 in the mixture employed, • QA is the minimum inhibitory concentration of isosorbide caprylate 1, • Qb is the minimum inhibitory concentration of ethylhexylglycerin in the mixture employed and • QB is the minimum inhibitory concentration of ethylhexylglycerin.
(§7) The values for Qa and Qb are determined from the values for the mixtures (“MIC mixture”) by multiplying the minimum inhibitory concentrations determined for Qa with the factor 0.5 and for Qb with the factor 0.5, because of the proportions of the ingredients—50% by weight of isosorbide caprylate 1 and 50% by weight of ethylhexylglycerin—in composition A according to the invention examined.
(§8) If an SE value>1 is obtained, an antagonistic effect is present. If SE=1, the compounds are neutral with respect to one another, and if SE<1, a synergistic effect is present.
(§9) Analogously to the determination of the antimicrobial activity according to the above example B), the antimicrobial activity of a mixture comprising, firstly, 89.6% by weight of isosorbide dicaprylate and 9.4% by weight of isosorbide monocaprylate (remainder: 1% by weight) (hereinbelow referred to as “isosorbide dicaprylate”) and, secondly, pure isosorbide was determined in further test series.

Candida albicans = assay: Minimum inhibitory concentration (MIC) in agar; type: cell-based; conditions: Candida albicans (Y)
Procedure: as §1, §2, §3, §4, §5, §6, §7, §8, §9

Aspergillus terreus = assay: Minimum inhibitory concentration (MIC) in agar; type: cell-based; conditions: Aspergillus terreus (F)
Procedure: as §1, §2, §3, §4, §5, §6, §7, §8, §9

Staphylococcus aureus = assay: Minimum inhibitory concentration (MIC) in agar; type: cell-based; conditions: Staphylococcus aureus (B)
Procedure: as §1, §2, §3, §4, §5, §6, §7, §8, §9

Aspergillus brasiliensis = assay: Minimum inhibitory concentration (MIC) in agar; type: cell-based; conditions: Aspergillus brasiliensis (F)
Procedure: as §1, §2, §3, §4, §5, §6, §7, §8, §9

Penicillium funicolosium = assay: Minimum inhibitory concentration (MIC) in agar; type: cell-based; conditions: Penicillium funicolosium (F)
Procedure: as §1, §2, §3, §4, §5, §6, §7, §8, §9

Proteus vulgaris = assay: Minimum inhibitory concentration (MIC) in agar; type: cell-based; conditions: Proteus vulgaris (B)
Procedure: as §1, §2, §3, §4, §5, §6, §7, §8, §9

Pseudomonas oleovorans = assay: Minimum inhibitory concentration (MIC) in agar; type: cell-based; conditions: Pseudomonas oleovorans (B)
Procedure: as §1, §2, §3, §4, §5, §6, §7, §8, §9

Klebsiella pneumoniae = assay: Minimum inhibitory concentration (MIC) in agar; type: cell-based; conditions: Klebsiella pneumoniae (B)
Procedure: as §1, §2, §3, §4, §5, §6, §7, §8, §9

Citrobacter freundii = assay: Minimum inhibitory concentration (MIC) in agar; type: cell-based; conditions: Citrobacter freundii (B)
Procedure: as §1, §2, §3, §4, §5, §6, §7, §8, §9

Fusarium solani = assay: Minimum inhibitory concentration (MIC) in agar; type: cell-based; conditions: Fusarium solani (F)
Procedure: as §1, §2, §3, §4, §5, §6, §7, §8, §9

Penicillium minioluteum = assay: Minimum inhibitory concentration (MIC) in agar; type: cell-based; conditions: Penicillium minioluteum (F)
Procedure: as §1, §2, §3, §4, §5, §6, §7, §8, §9

Enterobacter aerogenes = assay: Minimum inhibitory concentration (MIC) in agar; type: cell-based; conditions: Enterobacter aerogenes (B)
Procedure: as §1, §2, §3, §4, §5, §6, §7, §8, §9

Pseudomonas aeruginosa = assay: Minimum inhibitory concentration (MIC) in agar; type: cell-based; conditions: Pseudomonas aeruginosa (B)
Procedure: as §1, §2, §3, §4, §5, §6, §7, §8, §9

[2] = tested on: bacteria, fungi and yeasts; assay: Antimicrobial efficacy, overall statements; type: cell-based
Procedure: Below, the antimicrobial efficacy of a composition according to the invention consisting of 50% by weight of isorbide caprylate 1 and 50% by weight of ethylhexylglycerin against bacteria, fungi and yeasts is examined (hereinbelow, the composition is referred to as “composition A”). For the tests with bacteria, composition A was diluted with butyl polyglycol and then, at 50° C., added to liquid CASO agar (casein-peptone agar) buffered to pH 7 (+/−0.2) in various concentrations (hereinbelow referred to as compositions B1, B2, etc.). For the tests with fungi and yeasts, composition A was diluted with butyl polyglycol and then added to liquid Sabouraud 4% dextrose agar buffered to pH 5.6 (+/−0.2) in various concentrations (hereinbelow referred to as compositions PH1, PH2, etc.). […]
as §2, §9

[3] = MIC mixture x factor 0.5 (composition A)
[4] = Sabouraud 4% dextrose agar pH 5.6 (+/-0.2)
[5] = CASO agar pH 7 (+/-0.2), read-out: minimum inhibitory concentration (MIC), meas.
[6] = Sabouraud 4% dextrose agar pH 5.6 (+/-0.2), read-out: minimum inhibitory concentration (MIC), meas.

Compound: CCCCCCCC(=O)O [caprylic acid]
- antimicrobial activity (in words) ([1]; at a pH of 6 or above): no antimicrobial activity
- antimicrobial efficacy (in words) [1]: antimicrobially effective

- minimum inhibitory concentration (MIC), meas. (Escherichia coli; CASO agar pH 7 (+/-0.2)): 1000 ppm
- minimum inhibitory concentration (MIC), meas. (Candida albicans; [4]): 1000 ppm
- minimum inhibitory concentration (MIC), meas. (Aspergillus terreus; [4]): 1000 ppm
- minimum inhibitory concentration (MIC), meas. (Staphylococcus aureus; CASO agar pH 7 (+/-0.2)): 750 ppm
- minimum inhibitory concentration (MIC), meas. (Aspergillus brasiliensis; [4]): 1000 ppm
- minimum inhibitory concentration (MIC), meas. (Penicillium funicolosium; [4]): 500 ppm
- minimum inhibitory concentration (MIC), meas. (Proteus vulgaris; CASO agar pH 7 (+/-0.2)): 1500 ppm
- minimum inhibitory concentration (MIC), meas. (Pseudomonas oleovorans; CASO agar pH 7 (+/-0.2)): 5000 ppm
- minimum inhibitory concentration (MIC), meas. (Klebsiella pneumoniae; CASO agar pH 7 (+/-0.2)): 2000 ppm
- minimum inhibitory concentration (MIC), meas. (Citrobacter freundii; CASO agar pH 7 (+/-0.2)): 1500 ppm
- minimum inhibitory concentration (MIC), meas. (Fusarium solani; [4]): 500 ppm
- minimum inhibitory concentration (MIC), meas. (Penicillium minioluteum; [4]): 750 ppm
- minimum inhibitory concentration (MIC), meas. (Enterobacter aerogenes; CASO agar pH 7 (+/-0.2)): 2000 ppm
- minimum inhibitory concentration (MIC), meas. (Pseudomonas aeruginosa; CASO agar pH 7 (+/-0.2)): 5000 ppm
Compound: CCCCC(CC)COCC(O)CO (stereo not shown) [ethylhexylglycerin]
- minimum inhibitory concentration of the component in the mixture employed (Qa / Qb), calc. (Escherichia coli; [3]): 750 ppm
- minimum inhibitory concentration of the component in the mixture employed (Qa / Qb), calc. (Candida albicans; [3]): 375 ppm
- minimum inhibitory concentration of the component in the mixture employed (Qa / Qb), calc. (Aspergillus terreus; [3]): 250 ppm
- minimum inhibitory concentration of the component in the mixture employed (Qa / Qb), calc. (Staphylococcus aureus; [3]): 500 ppm
- minimum inhibitory concentration of the component in the mixture employed (Qa / Qb), calc. (Aspergillus brasiliensis; [3]): 375 ppm
- minimum inhibitory concentration of the component in the mixture employed (Qa / Qb), calc. (Penicillium funicolosium; [3]): 125 ppm
- minimum inhibitory concentration of the component in the mixture employed (Qa / Qb), calc. (Proteus vulgaris; [3]): 750 ppm
- minimum inhibitory concentration of the component in the mixture employed (Qa / Qb), calc. (Pseudomonas oleovorans; [3]): 5000 ppm
- minimum inhibitory concentration of the component in the mixture employed (Qa / Qb), calc. (Klebsiella pneumoniae; [3]): 1000 ppm
- minimum inhibitory concentration of the component in the mixture employed (Qa / Qb), calc. (Citrobacter freundii; [3]): 750 ppm
- minimum inhibitory concentration of the component in the mixture employed (Qa / Qb), calc. (Fusarium solani; [3]): 125 ppm
- minimum inhibitory concentration of the component in the mixture employed (Qa / Qb), calc. (Penicillium minioluteum; [3]): 250 ppm
- minimum inhibitory concentration of the component in the mixture employed (Qa / Qb), calc. (Enterobacter aerogenes; [3]): 2500 ppm
- minimum inhibitory concentration of the component in the mixture employed (Qa / Qb), calc. (Pseudomonas aeruginosa; [3]): 2500 ppm

- MIC (Escherichia coli; [5]): 10000 µg/mL
- MIC (Candida albicans; [6]): 10000 µg/mL
- MIC (Aspergillus terreus; [6]): 10000 µg/mL
- MIC (Staphylococcus aureus; [5]): 10000 µg/mL
- MIC (Aspergillus brasiliensis; [6]): 10000 µg/mL
- MIC (Penicillium funicolosium; [6]): 10000 µg/mL
- MIC (Proteus vulgaris; [5]): 10000 µg/mL
- MIC (Pseudomonas oleovorans; Ectopseudomonas oleovorans, CASO agar pH 7 (+/-0.2), read-out: minimum inhibitory concentration (MIC), meas.): 10000 µg/mL
- MIC (Klebsiella pneumoniae; [5]): 10000 µg/mL
- MIC (Citrobacter freundii; [5]): 10000 µg/mL
- MIC (Fusarium solani; [6]): 10000 µg/mL
- MIC (Penicillium minioluteum; Talaromyces minioluteus, Sabouraud 4% dextrose agar pH 5.6 (+/-0.2), read-out: minimum inhibitory concentration (MIC), meas.): 10000 µg/mL
- MIC (Enterobacter aerogenes; Klebsiella aerogenes, CASO agar pH 7 (+/-0.2), read-out: minimum inhibitory concentration (MIC), meas.): 10000 µg/mL
- MIC (Pseudomonas aeruginosa; [5]): 10000 µg/mL
Compound: O[C@@H]1CO[C@H]2[C@@H]1OC[C@@H]2O [isosorbide]
- antimicrobial activity (in words) ([2]; summary of the results of Table 2): neither isosorbide nor isosorbide dicaprylate are antimicrobially active

Compound: isosorbide monocaprylate
- antimicrobial activity (in words) ([2]; concluded from the MICs of isosorbide caprylate 1 and of its other constituents): significant antimicrobial activity
